Experimental findings from patent US20230255974A1, “USE OF THYROMIMETICS FOR THE TREATMENT OF CANCER” (THE UNIVERSITY OF VERMONT, priority 2020, published 2023) are described below.

The subject of one series is OCUT-2. Kind of series: Cell growth with STAT1 activator 2-NP. It counts as cell-based. To be noted: 0-50 μM 2-NP, 24 hours. As for the experimental part: (§1) Growth Assays. Cell growth was measured either through live cell imaging or by cell counting at discrete points. Live cell imaging was used to assess the growth kinetics of SW-EV and SW-TRβ. To perform live cell imaging, 5000 cells were plated per well in 24 well plates. After 24 hours in phenol red free, charcoal stripped media, media was supplemented with either 10^−8 M T3 or equivolume vehicle (NaOH). Every two hours cells were imaged with a Lionheart automated microscope (BioTek) and quantified with Gen5 software (BioTek). The cells entered the log phase of growth at approximately 48 hours, and the portion of the curve following this point was used to calculate the doubling time of the cells. In order to measure growth manually, 25,000 cells were plated per well in a six well plate. Cells were grown in full thyroid media with the addition of 2-(1,8-Naphthyridin-2-yl)phenol (2-NP) (Abcam) or vehicle (DMSO). Every 24 hours cell counts were assessed by hemocytometer.
(§2) STAT1 has anti-proliferative activity, raising the question whether it can be exploited pharmacologically to reduce ATC growth. Baseline expression of key genes in the JAK1-STAT1 pathway and TR isoform levels (TRβ and TRα) in 3 additional anaplastic thyroid cancer cell lines are illustrated in FIG. 10C.

For series [1], the system named is KTC-2. Put plainly: Cell growth with STAT1 activator 2-NP. It counts as cell-based. As to conditions: 0-50 μM 2-NP, 24 hours. As for the experimental part:
as §1, §2

In the next series the test system is SW1736. Kind of series: Cell growth with STAT1 activator 2-NP. It counts as cell-based, human. As to conditions: 0-50 μM 2-NP, 24 hours. As for the experimental part: as §1, §2
Series [2] deals with KTC-2. Put plainly: Xenograft model of anaplastic thyroid tumor. It counts as in vivo, SCID female mice. As to conditions: KTC-2 subcutaneous xenograft, GC-1 0.3 mg/Kg, Buparlisib 5 mg/Kg, approximately 6 week study. As for the experimental part:
Doses of Buparlisib tested in xenograft studies range from 5 mg/Kg to 20 mg/Kg.
Drugs were prepared at concentrations suitable for intraperitoneal (i.p.) injection of 5 μL/g body weight. […] Drug stocks were prepared by dissolving sobetirome and Sob-AM2 at 1 mg/mL in dimethyl sulfoxide (DMSO). […] Vehicles were prepared with 20% DMSO in saline.”
Buparlisib was used as a 5 mg/kg buparlisib treatment (recommended by Novartis). Buparlisib suspension was prepared in 0.5% methyl cellulose and 0.5% Tween20.
Tumors were established by subcutaneous injection of 5×10^6 tumor cells in 100 μL of phosphate-buffered saline into the flank region into SCID female mice. Thyroid cancer occurs in females ˜4× more often than in males. As funding is available; both males and females will be tested.
The study was approximately a 6 week study. Tumor mass was measured, and tumors and tissues were saved for IHC and RNAseq.

In series [3] the test system is SW1736, 8505C, OCUT2, and KTC-2 cells. Kind of series: Cell migration by scratch (wound healing) assay, inhibitors with or without GC-1. It counts as cell-based, human. To be noted: KTC-2 cells, GC-1 10^−8M plus 0.5 μM Buparlisib. As for the experimental part: Migration Assay. Cell migration was determined by wound healing assay. Cells were plated and allowed to grow to 100% confluency. Four hours prior to scratching, cells were treated with […] Mitomycin C. A scratch was performed with a P1000 pipette tip and debris was washed away with PBS. […] Images were obtained at 0, 16, 24, 48, and 72 hours or until 100% wound closure, depending on the cell type. The wound closure was measured using the ImageJ macro “Wound Healing Tool” (https://github.com/MontpellierRessourcesImagerie/imagej_macros_and_scripts/wiki/Wound-Healing-Tool). Percent closure was calculated relative to the area of the initial scratch.

Series [4] deals with MDA-MB-468 cells (EV, TRβ). Kind of series: Mammosphere growth, triple negative breast cancer cells. It counts as cell-based. An excerpt:
Data are mean+/−SD; * indicates p<0.05 determined by t-test.

Series [5] deals with MDA-MB-468 cells (EV, TRβ). Kind of series: Relative cell growth by cell counting, triple negative breast cancer cells. It counts as cell-based. As to conditions: MDA-MB-468-TRβ, 10 nM GC-1, 8 days. An excerpt: MDA-MB-468 cells were transduced with empty vector (EV) (FIGS. 29A, 29C) or thyroid hormone receptor beta (TRβ) (FIGS. 29B, 29D) and maintained in complete media. […] Data are mean+/−SD; * indicates p<0.05 determined by t-test.

The subject of series [6] is SW1736 cells (SW-EV, SW-TRβ). Kind of series: Buparlisib with or without GC-1, cell viability/growth, 24 hr. It counts as cell-based, human. As for the experimental part:
SW1736 cells transduced with lentiviral vector (EV) or lentiviral vector containing TRβ (TRβ) were treated with buparlisib (0 μM, 0.1 μM, 1 μM, or 10 μM) for 24 hours.

For series [7], the system named is SW1736 cells (SW-EV, SW-TRβ). Put plainly: LY294002 inhibition of ATC cell growth. It counts as cell-based. As to conditions: Homo sapiens.
A further series relates to PI3K. Put plainly: PI3K activity by pAkt and p mTOR immunoblot. It counts as cell-based, human. To be noted: SW-TRβ vs SW-EV, LY294002 24 hr, T3 10^−8 M. As for the experimental part:
Immunoblot Analysis. Proteins were isolated from whole cells in lysis buffer (20 mM Tris-HCl [pH 8], 137 mM NaCl, 10% glycerol, 1% Triton X-100, and 2 mM EDTA) containing Protease Inhibitor Cocktail 78410 (Thermo Scientific). Proteins were resolved by polyacrylamide gel electrophoresis on 10% sodium dodecyl sulfate gels EC60752 (Life Technologies) and immobilized onto nitrocellulose membranes (GE Healthcare) by electroblot (Bio-Rad Laboratories). Specific proteins were detected by immunoblotting with the indicated antibodies (Table 4); immunoreactive proteins were detected by enhanced chemiluminescence (Thermo Scientific) on a ChemiDoc XRS+ (Bio-Rad Laboratories).
Background: Immunoblotting shows a protein as a band on a membrane.

Series [8] relates to SW1736 cells (SW-EV, SW-TRβ). Put plainly: LY294002 inhibition of ATC cell migration. It counts as cell-based, human. As to conditions: presence of liganded TRβ (SW-TRβ vs SW-EV). As for the experimental part: Migration Assay. Cell migration was determined by wound healing assay. Cells were plated and allowed to grow to 100% confluency. Two hours prior to scratching, cells were treated with […] Mitomycin C. A scratch was performed with a P1000 pipette tip and debris was washed away with PBS. Migration media was supplemented with 10^−8 M T3. Images were obtained at 0, 24, 48, and 72 hours. Wound closure was measured using ImageJ macro “Wound Healing Tool” (http://dev.mri.cnrs.fr/projects/imagej-macros/wiki/Wound_Healing_Tool). Values were normalized so that the initial scratch was 0% closure.
TRβ also enhances PI3K inhibitor LY294002 inhibition of ATC cell growth and cell migration. […] LY294002 induces a 50% reduction in growth of normal-like thyroid cells NthyOri in which TRβ is expressed. […] Liganded TRβ suppresses ATC cell growth and migration as a tumor suppressor and critically enhances the effectiveness of a potential therapeutic agent.

In the next series the test system is NthyOri. Kind of series: LY294002 growth of normal-like thyroid cells. To be noted: normal-like thyroid cells NthyOri in which TRβ is expressed. It counts as cell-based.
In a further series the test system is MCF7. Put plainly: Mammosphere growth, Luminal A breast cancer cells. As to conditions: MCF7, 10 nM GC-1, 5 days. It counts as cell-based.

“Also recorded” adds a separate entry of the source.

As for `Oc1ccccc1-c1ccc2cccnc2n1` [2-NP, 2-(1,8-naphthyridin-2-yl)phenol], the “reduction in cell growth” value in the series on OCUT-2 was “recapitulates the effect of T3-TRβ”; in the series on KTC-2 [1], “recapitulates the effect of T3-TRβ”; with SW1736, “recapitulates the effect of T3-TRβ; also recorded: most responsive”.

Take `Nc1cc(C(F)(F)F)c(-c2cc(N3CCOCC3)nc(N3CCOCC3)n2)cn1` [Buparlisib, 5-(2,6-dimorpholin-4-ylpyrimidin-4-yl)-4-(trifluoromethyl)pyridin-2-amine]: in the series with KTC-2 [2], the metastases result is “detectable metastases to the heart” and the tumor growth result is recorded as “smaller non-nodular growth”. The “wound closure, inhibitor combined with GC-1” value in series [3] is “exception”. Besides, the “mammosphere growth, Buparlisib in the presence of GC-1” value in [4] (10 nM GC-1, 5 days) is “increases the efficacy of Buparlisib to reduced mammosphere growth”. The “reduction of effective Buparlisib in the presence of GC-1” value in [4] (mammospheres from MDA-MB-468-TRβ cells) is given as 50%. For the same compound, the “cell growth, combination with GC-1” value in [5] was “synergistic effect to reduce cell growth”. Further, in series [6] (10 μM), the toxicity to cells entry was “toxic”. In addition, the cell viability entry in series [6] (SW-EV, buparlisib alone 0-10 μM) was “concentration dependent decrease in cell viability”. The “sensitivity of cell growth to buparlisib” value in [6] (SW-TRβ plus GC-1 10^−8M) was “increase the sensitivity to buparlisib at 0.1 and 1 μM”. Also, the “EC50, cell viability” value in series [6] (SW-TRβ vs SW-EV) was “significantly reduced EC50”.

Take `O=c1cc(N2CCOCC2)oc2c(-c3ccccc3)cccc12` [LY294002, 2-(morpholin-4-yl)-8-phenyl-4H-chromen-4-one]: the 50% effective concentration (EC50) (usually the concentration needed to bring the measured effect to its halfway point) in series [7] (SW-1736, SW-EV (no TRβ re-expression), T3) is 5.21 µM; in series [7] (SW-1736, SW-EV, unit inferred), 5.21 µM; in [7] (SW-1736, SW-TRβ, liganded (T3)) it was 1.13 µM; in series [7] (SW-1736, SW-TRβ, liganded (T3), unit inferred) it was 1.13 µM. The “pAkt vs total Akt and p mTOR vs total mTOR” value in the series on PI3K was “decreased pAkt compared with total Akt and decreased p mTOR compared with total mTOR”. Moreover, the “inhibition of ATC cell migration” value in series [8] is on record as “enhances LY294002 inhibition of ATC cell migration”. In the series with NthyOri, this compound gave a reduction in growth of 50%.

Consider `CC(=O)c1c(C)c2cnc(Nc3ccc(N4CCNCC4)cn3)nc2n(C2CCCC2)c1=O` [Palbociclib, 6-acetyl-8-cyclopentyl-5-methyl-2-[(5-piperazin-1-ylpyridin-2-yl)amino]pyrido[6,5-d]pyrimidin-7-one], for which, in [5], the “cell growth, combination with GC-1” value is reported as “synergistic effect to reduce cell growth”.

Take `CC/C(=C(\c1ccccc1)c1ccc(OCCN(C)C)cc1)c1ccccc1` [tamoxifen]: the “effect of inhibitor in the presence of GC-1” value with MCF7 is on record as “enhanced the effect”.
